Laboratory results as given in patent publication US20250084094A1 (Vertex Pharmaceuticals Incorporated, priority 2021, published 2025).

Target: T1, APOL1 (Homo sapiens, UniProt O14791)
T1 sequence (O14791 1-398 S342G/I384M): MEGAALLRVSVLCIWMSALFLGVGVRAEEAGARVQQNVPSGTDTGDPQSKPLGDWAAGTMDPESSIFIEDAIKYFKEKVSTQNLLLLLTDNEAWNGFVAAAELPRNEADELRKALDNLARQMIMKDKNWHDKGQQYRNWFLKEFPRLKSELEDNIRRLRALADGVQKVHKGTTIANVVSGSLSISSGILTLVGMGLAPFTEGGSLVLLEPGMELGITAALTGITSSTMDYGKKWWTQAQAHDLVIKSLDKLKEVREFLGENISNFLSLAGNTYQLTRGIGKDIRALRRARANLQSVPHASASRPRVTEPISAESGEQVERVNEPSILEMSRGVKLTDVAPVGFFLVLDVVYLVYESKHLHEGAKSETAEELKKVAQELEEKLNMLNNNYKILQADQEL
Test: MultiTox-Fluor Multiplex Cytotoxicity Assay in tet-inducible APOL1 T-REx-HEK293 cells
Assay type: cell-based
Conditions: tet-inducible transgenic APOL1 T-REx-HEK293 cell lines, 50 ng/mL tet, 24 hours, ratio of dead to live cells; read-out: IP50 (nM) (i.e., IC50 for cell proliferation)
Protocol: The MultiTox-Fluor Multiplex Cytotoxicity Assay is a single-reagent-addition, homogeneous, fluorescence assay that measures the number of live and dead cells simultaneously in culture wells. The assay measures cell viability and cytotoxicity by detecting two distinct protease activities. The live-cell protease activity is restricted to intact viable cells and is measured using a fluorogenic, cell-permeant peptide glycyl-phenylalanylamino fluorocoumarin (GF-AFC) substrate. The substrate enters intact cells, where it is cleaved to generate a fluorescent signal proportional to the number of living cells. […] A second, cell-impermeant, fluorogenic peptide substrate (bis-AAF-R110 Substrate) is used to measure dead-cell protease that has been released from cells that have lost membrane integrity. A ratio of dead to live cells is used to normalize data.
Briefly, the tet-inducible transgenic APOL1 T-REx-HEK293 cell lines were incubated with 50 ng/mL tet to induce APOL1 in the presence of 3-(2-(4-fluorophenyl)-1H-indol-3-yl)-N-((3S,4R)-4-hydroxy-2-oxopyrrolidin-3-yl)propenamide at 10.03, 3.24, 1.13, 0.356, 0.129, 0.042, 0.129, 0.0045, 0.0015, 0.0005 μM in duplicate for 24 hours in a humidified 37° C. incubator. The MultiTox reagent was added to each well and placed back in the incubator for an additional 30 minutes. The plate was read on the EnVision plate reader. A ratio of dead to live cells was used to normalize, and data was imported, analyzed, and fit using Genedata Screener (Basel, Switzerland) software. Data was normalized using percent of control, no tet (100% viability), and 50 ng/mL tet treated (0% viability),and fit using Smart Fit. The reagents, methods, and complete protocol for the MultiTox assay are described below.
Human embryonic kidney (HEK293) cell lines containing a tet-inducible expression system (T-REx™; Invitrogen, Carlsbad, CA) and Adeno-associated virus site 1 pAAVS1-Puro-APOL1 G0 or pAAVS1-Puro-APOL1 G1 or pAAVS1-Puro-APOL1 G2 Clones G0 DC2.13, Gi DC3.25, and G2 DC4.44 were grown in a T-225 flask at ˜90% confluency in cell growth media (DMEM, 10% Tet-free FBS, 2 mM L-glutamine, 100 Units/mL penicillin-streptomycin, 5 μg/mL blasticidin S HCl, 1 μg/mL puromycin dihydrochloride). Cells were washed with DPBS and then trypsinized to dissociate from the flask. Media was used to quench the trypsin, cells were then pelleted at 200 g and resuspended in fresh cell assay media (DMEM, 2% Tet-free FBS, 2 mM L-glutamine, 100 Units/mL penicillin-streptomycin). Cells were counted and diluted to 1.17×10^6 cells/mL. 20 μL of cells (23,400/well) were dispensed in every well of a 384-well Poly-D-Lysine coated plate using the Multidrop dispenser. The plates were then incubated at room temperature for one hour.
Tetracycline is needed to induce APOL1 expression. 1 mg/mL tet stock in water was diluted to 250 ng/mL (5×) in cell assay media. 60 μL of cell assay media (no tet control) was dispensed in columns 1 and 24, and 60 μL of 5× tet in 384-PP-round bottom plate was dispensed in columns 2 to 23 with the Multidrop dispenser.
Assay ready plates from the Global Compound Archive were ordered using template 384_APOLICell_DR10n2_50 uM_v3. Compounds were dispensed at 200 nL in DMSO. The final top concentration was 10 μM with a 10 point 3-fold dilution in duplicate in the MultiTox assay.
20 μL was transferred from the 5× tet plate to the ARP and mixed, then 5 μL of 5× tet and the compounds were transferred to the cell plate and mixed using the Bravo. The cell plate was placed in the humidified 37° C. 5% CO2 incubator for 24 hours.
The MultiTox-Fluor Multiplex Cytotoxicity Assay was performed in accordance with the manufacturer's protocol. After cells were incubated with tet and compound for 24 hours, 25 μL of 1x MultiTox reagent was added to each well using the Multidrop dispenser; the plates were placed on a plate shaker (600 rpm) for 2 minutes, then centrifuged briefly and placed back in the 37° C. incubator for 30 minutes. […]

SMILES	IC50 [nM]
C[C@H]1C[C@@]2(C[C@@H](c3cn(C)nn3)N1)C(=O)Nc1cc(Cl)ccc12 [Compound 36, (2′S,3S,6′S)-6-chloro-2′-methyl-6′-(1-methyltriazol-4-yl)spiro[indoline-3,4′-piperidine]-2-one]	< 50
C[C@H]1C[C@@]2(C[C@@H](c3cn(C)nn3)N1)C(=O)Nc1ccc(C(F)(F)F)cc12 [Compound 37, (2′S,3S,6′S)-2′-methyl-6′-(1-methyltriazol-4-yl)-5-(trifluoromethyl)spiro[indoline-3,4′-piperidine]-2-one]	< 50
C[C@H]1C[C@@]2(C[C@@H](c3cn(C)nn3)N1)C(=O)Nc1cc(C(F)(F)F)ccc12 [Compound 38, (2′S,3S,6′S)-2′-methyl-6′-(1-methyltriazol-4-yl)-6-(trifluoromethyl)spiro[indoline-3,4′-piperidine]-2-one]	< 50
C[C@H]1CC2(C[C@@H](c3cn(C)nn3)N1)OC(C(N)=O)c1cc(Cl)ccc12 (stereo partly drawn) [Compound 39, (2′S,6′S)-6-chloro-2′-methyl-6′-(1-methyltriazol-4-yl)spiro[1H-isobenzofuran-3,4′-piperidine]-1-carboxamide]	< 50
C[C@H]1CC2(C[C@@H](c3cn(C)nn3)N1)OC(C(N)=O)c1ccc(Cl)cc12 (stereo partly drawn) [Compound 41, (2′S,6′S)-5-chloro-2′-methyl-6′-(1-methyltriazol-4-yl)spiro[1H-isobenzofuran-3,4′-piperidine]-1-carboxamide]	< 50
